We go through 15 compounds from ChEMBL document CHEMBL1201862, “PubChem BioAssay data set” (2004).

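A five-concentration, 48-hour dose response in 96-well plates underlies each endpoint, interpolated linearly between surrounding concentrations. The concentration for 50% growth inhibition is given as GI50.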 Calls of active or inactive are those of the source. Rule as the data show it: active = GI50 up to about 1.1 µM and inactive = higher.

Common to all, as to experiment: inhibition of tumour cell growth, NCI panel, 48 h
Assay [1] deals with 786-0.
Assay [2] has as its system CCRF-CEM.
Assay [3] concerns HL-60.
For assay [4], the system named is HOP-62.
For assay [5], the system named is HT-29.
For assay [6], the system named is IGROV-1.
Assay [7] relates to M14.
Assay [8] concerns NCI-H226.
Assay [9] has as its system NCI-H460.
Assay [10] relates to RXF 393.
The subject of assay [11] is SF-539.
Assay [12] relates to SK-OV-3.
Assay [13] relates to SNB-75.
Assay [14] deals with TK-10.

For the compound `CN(C)/C=C/C(=O)c1cccc(C(=O)/C=C/N(C)C)n1`, the GI50 in assay [1], in [2], in assay [3], in assay [4], in assay [5] and in [6] was > 100 µM (inactive) throughout. Besides, the GI50 in assay [7], in assay [8], in assay [9], in [10], in assay [11] and in assay [12] was > 100 µM (inactive) each time. Also, the GI50 in assay [13] and in assay [14] was > 100 µM (inactive) throughout.

Take `COC(=O)N/N=C(/CCC(=O)Nc1ccc(C)c(C)c1)CC(=O)C(C)(C)C`: the GI50 in [1], in assay [2], in [3], in assay [4], in assay [5] and in assay [6] was > 100 µM (inactive) in each case. The GI50 in [7], in assay [8], in assay [9], in assay [10], in assay [11] and in assay [12] was > 100 µM (inactive) throughout. For the same compound, the GI50 in assay [13] and in assay [14] was > 100 µM (inactive) throughout.

`OCc1cc2c(cn1)[nH]c1ccc(NCc3ccccc3)cc12`: the GI50 is 25.2 µM (inactive) in assay [1]; 20.7 µM (inactive) in assay [2]; 12.1 µM (inactive) in assay [3]; 51.9 µM (inactive) in assay [4]; 14.8 µM (inactive) in [5]; 43 µM (inactive) in assay [6]. The GI50 was 16.4 µM (inactive) in assay [7]; 19.1 µM (inactive) in [8]; 24.4 µM (inactive) in assay [9]; 20.3 µM (inactive) in assay [10]; 30.3 µM (inactive) in [11]; 25.5 µM (inactive) in assay [12]. Besides, the GI50 in assay [13] was 25.5 µM (inactive); in [14] it was 30.6 µM (inactive).

For the compound `O=[N+]([O-])c1ccc(/C=N/C23CC4CC(CC(C4)C2)C3)cc1`, the GI50 was > 100 µM (inactive) in assay [1]; 80.4 µM (inactive) in [2]; 71.3 µM (inactive) in assay [3]; > 100 µM (inactive) in [4]; > 100 µM (inactive) in assay [5]; > 100 µM (inactive) in assay [6]. Besides, the GI50 in assay [7], in assay [8], in assay [9], in assay [10], in [11] and in assay [12] was > 100 µM (inactive) each time. Moreover, the GI50 in [13] and in assay [14] was > 100 µM (inactive) each time.

On to `CCCOP(=S)(N1CC1)N1CC1`, for which the GI50 in assay [1], in assay [2], in assay [3], in assay [4], in assay [5] and in [6] was > 100 µM (inactive) each time. For the same compound, the GI50 was > 100 µM (inactive) in assay [7]; 75.9 µM (inactive) in [8]; > 100 µM (inactive) in [9]; > 100 µM (inactive) in [10]; > 100 µM (inactive) in assay [11]; > 100 µM (inactive) in assay [12]. The GI50 in assay [13] was 48.3 µM (inactive); in assay [14], > 100 µM (inactive).

`CC1=CC=C2C(C)(C)CC[C@@H]3OC(=O)[C@H]1[C@]23C`: the GI50 in [1], in assay [2], in [3], in assay [4], in [5] and in assay [6] was > 100 µM (inactive) each time. The GI50 in assay [7], in [8], in assay [10], in assay [11], in assay [12] and in assay [13] was > 100 µM (inactive) each time. Further, the GI50 in [14] is > 100 µM (inactive).

On to `CCOC(=O)C1=C(C)N(c2ccc(C)cc2)C2=C(C(=O)N(c3ccccc3)C2c2ccccc2)C1c1ccccc1` (stereo not drawn), for which the GI50 was > 25 µM (inactive) in [1]; 20.8 µM (inactive) in assay [2]; > 25 µM (inactive) in assay [3]; > 25 µM (inactive) in assay [4]; > 25 µM (inactive) in [5]; > 25 µM (inactive) in assay [6]. Moreover, the GI50 in [7] was > 25 µM (inactive); in assay [8] it was > 25 µM (inactive); in [9], 13.3 µM (inactive); in [10] it was 0.558 µM (active); in [11] it was > 25 µM (inactive); in [13], 1.51 µM (inactive). Moreover, the GI50 in assay [14] is > 25 µM (inactive).

Regarding `CC1=NN(C(=O)Cc2ccccc2)C(=O)/C1=C\c1ccc([N+](=O)[O-])cc1`, the GI50 in assay [1], in assay [2], in assay [4], in assay [5], in assay [6] and in [7] was > 100 µM (inactive) in each case. Also, the GI50 in [8], in [9], in assay [10], in [11], in assay [12] and in [14] was > 100 µM (inactive) each time.

On to `CN1C(=O)N(c2nc3ccccc3[nH]2)C(C)(C)C1=O`, for which the GI50 in assay [1], in assay [2], in assay [3], in [4], in assay [5] and in assay [6] was > 100 µM (inactive) in each case. In addition, the GI50 in assay [7], in assay [8], in [10], in assay [11], in [12] and in [13] was > 100 µM (inactive) throughout.

Turning to `Clc1ccccc1C1N2CCCCC2[C@@H]2c3[nH]c4ccccc4c3CCN12` (stereo partly drawn), the GI50 in assay [1] was 21.2 µM (inactive); in assay [2], 19.1 µM (inactive); in assay [3] it was 19.5 µM (inactive); in [4] it was 29.9 µM (inactive); in [5], 17.1 µM (inactive); in [6] it was 35.1 µM (inactive). In addition, the GI50 in assay [7] was 17.3 µM (inactive); in assay [9] it was 19.4 µM (inactive); in [10] it was 22 µM (inactive); in [11], 15.2 µM (inactive); in assay [12], 21.6 µM (inactive); in assay [13] it was 32.4 µM (inactive). In addition, in assay [14], the GI50 is 23.8 µM (inactive).

As for `COc1ccc(/C=C/c2nnc(S)[nH]2)cc1OC`, the GI50 in assay [1], in assay [2], in assay [3], in assay [5], in [6] and in assay [7] was > 100 µM (inactive) in each case. In addition, the GI50 in [8], in assay [9], in assay [10], in assay [11], in assay [13] and in [14] was > 100 µM (inactive) throughout.

As to `O=C1C(Cl)C(c2cc(Br)cc(Br)c2O)N1n1cnc2ccccc2c1=O` (stereo not drawn), the GI50 is 26.2 µM (inactive) in [1]; 9.29 µM (inactive) in assay [2]; 16.8 µM (inactive) in [3]; 24.3 µM (inactive) in [4]; 36.1 µM (inactive) in assay [5]; 23.4 µM (inactive) in assay [6]. The GI50 in assay [7] is 18.3 µM (inactive); in [8], 21.9 µM (inactive); in [9], 12.6 µM (inactive); in assay [10], 21 µM (inactive); in assay [12], 13.6 µM (inactive); in assay [13], 25.3 µM (inactive). The GI50 in assay [14] was 46.5 µM (inactive).

Consider `O=c1c2ccccc2nc(-c2cccc(Cl)c2)n1NCC1(O)OCC(O)C(O)C1O` (stereo not drawn), for which the GI50 in assay [1] was > 100 µM (inactive); in assay [2], 41.7 µM (inactive); in assay [3] it was 30.7 µM (inactive); in [5], > 100 µM (inactive); in assay [7], > 100 µM (inactive); in assay [8] it was > 100 µM (inactive). Further, the GI50 in [9] was > 100 µM (inactive); in assay [10], 51.9 µM (inactive); in [11], > 100 µM (inactive); in assay [12], > 100 µM (inactive); in assay [13], > 10 µM (inactive).

Regarding `CCOC(=O)c1[nH]c(COC(C)=O)c(CCCOC(C)=O)c1CCCOC(C)=O`, the GI50 in [1], in assay [2], in assay [3], in assay [4], in assay [5] and in assay [6] was > 100 µM (inactive) throughout. Besides, the GI50 in [8], in [9], in [10], in [11], in assay [12] and in assay [14] was > 100 µM (inactive) throughout.

For `NC1=C(O)c2cccc3cccc(c23)C1=O`, the GI50 in [1], in assay [2], in [3], in assay [5], in [6] and in assay [7] was > 100 µM (inactive) each time. Besides, the GI50 in assay [8] is 35.9 µM (inactive); in assay [10], > 100 µM (inactive); in [11] it was > 100 µM (inactive); in assay [12] it was > 100 µM (inactive); in [13], > 100 µM (inactive); in [14], > 100 µM (inactive).
